Assay [1] has as its target human CB1 receptors (Homo sapiens (Human), UniProt P21554). In words: functional cAMP assay, CHO cells expressing human CB1. The class given is cell-based. The essentials:
(§1)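 CHO cells expressing human CB1 or CB2 were preincubated 30 min at 30 °C in Krebs Ringer bicarbonate with 1 mM IBMX, then exposed to compound 30 min at 30 °C. cAMP quantified by TR-FRET competition (Alexa700 antibody/ruthenium-cAMP) against a 10 μM–0.13 nM standard curve; EC50 derived.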
On the technique in general: cAMP levels reflect the balance of adenylyl cyclase and phosphodiesterase activity.

Assay [2] has as its target human CB2 receptors (Homo sapiens (Human), UniProt P34972). The assay is described as follows: functional cAMP assay, CHO cells expressing human CB2. It counts as cell-based. The essentials:
as §1

Setting [3] is: functional cAMP assay, CHO cells expressing human CB1; read-out: Human CB1 EC50.
[4] abbreviates: Human CB1 EC50 (uM), functional cAMP assay, CHO cells expressing human CB1.

One may read the EC50 as the concentration that produces a half-maximal response.

Like-named read-outs stand apart in the source and are kept apart here.

Sequence of human CB1 receptors (P21554 whole entry): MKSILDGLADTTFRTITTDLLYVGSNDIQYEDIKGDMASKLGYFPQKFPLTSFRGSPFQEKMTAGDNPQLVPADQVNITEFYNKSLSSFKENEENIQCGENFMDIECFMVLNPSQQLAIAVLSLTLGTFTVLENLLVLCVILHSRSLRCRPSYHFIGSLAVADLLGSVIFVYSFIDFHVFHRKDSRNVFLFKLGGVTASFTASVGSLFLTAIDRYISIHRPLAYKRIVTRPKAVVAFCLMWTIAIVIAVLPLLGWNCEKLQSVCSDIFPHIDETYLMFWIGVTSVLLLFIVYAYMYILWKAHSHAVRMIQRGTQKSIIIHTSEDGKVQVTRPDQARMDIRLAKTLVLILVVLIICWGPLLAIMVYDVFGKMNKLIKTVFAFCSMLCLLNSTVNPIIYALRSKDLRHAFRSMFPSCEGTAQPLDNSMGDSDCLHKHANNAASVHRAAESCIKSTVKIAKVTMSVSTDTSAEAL
Sequence of human CB2 receptors (P34972 whole entry): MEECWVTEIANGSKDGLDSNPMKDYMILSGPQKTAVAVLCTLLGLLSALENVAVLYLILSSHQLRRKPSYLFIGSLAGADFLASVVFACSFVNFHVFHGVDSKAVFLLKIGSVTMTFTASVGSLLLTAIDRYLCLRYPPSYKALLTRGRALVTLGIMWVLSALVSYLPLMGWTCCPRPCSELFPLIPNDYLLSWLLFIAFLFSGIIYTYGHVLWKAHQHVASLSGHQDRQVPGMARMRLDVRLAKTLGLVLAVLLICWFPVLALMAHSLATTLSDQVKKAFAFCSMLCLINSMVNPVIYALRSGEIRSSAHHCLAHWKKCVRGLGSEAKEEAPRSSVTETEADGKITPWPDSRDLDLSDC

For `C[C@H](Oc1cc(C(=O)NC(C(N)=O)C(C)(C)C)ncc1C1CC1)C(F)(F)F` (stereo partly drawn) [Example 199, N-(1-amino-3,3-dimethyl-1-oxobutan-2-yl)-5-cyclopropyl-4-[(2S)-1,1,1-trifluoropropan-2-yl]oxypyridine-2-carboxamide], the EC50 in assay [1] (setting [3]) is > 10 µM; in assay [2] (read-out: Human CB2 EC50) it was 0.0078 µM.

On to `CNC(=O)[C@@H](NC(=O)c1cc(OCC(F)(F)F)c(Cl)cn1)C(C)(C)C` [Example 24, 5-Chloro-4-(2,2,2-trifluoro-ethoxy)-pyridine-2-carboxylic acid ((S)-2,2-dimethyl-1-methylcarbamoyl-propyl)-amide], for which the EC50 was > 10 µM in assay [1] (setting [3]) and 0.0098 µM in assay [2] (read-out: Human CB2 EC50).

Turning to `Cc1cnc(C2(NC(=O)c3cc(OCC(F)(F)F)c(C4CC4)cn3)CCOCC2)s1` [Example 153, 5-cyclopropyl-N-[4-(5-methyl-1,3-thiazol-2-yl)oxan-4-yl]-4-(2,2,2-trifluoroethoxy)pyridine-2-carboxamide], the EC50 was > 10 µM in assay [1] (setting [4]) and 0.0407 µM in assay [2] (Human CB2 EC50 (uM)).

For `CC(C)(CO)CNC(=O)c1cc(OCC2CC2)c(Cl)cn1` [Example 17, 5-Chloro-4-cyclopropylmethoxy-pyridine-2-carboxylic acid (3-hydroxy-2,2-dimethyl-propyl)-amide], the EC50 was > 10 µM in assay [1] (setting [3]) and 0.0473 µM in assay [2] (read-out: Human CB2 EC50).

With `Cc1nnc(C(NC(=O)c2cc(OCC(F)(F)F)c(C3CC3)cn2)C(C)(C)C)o1` (single isomer, unassigned) [Example 178, 5-cyclopropyl-N-[2,2-dimethyl-1-(5-methyl-1,3,4-oxadiazol-2-yl)propyl]-4-(2,2,2-trifluoroethoxy)pyridine-2-carboxamide], the results for the EC50 in assay [1] (setting [4]) and in assay [2] (Human CB2 EC50 (uM)) were > 10 µM and 0.0105 µM, respectively.

Regarding `CCN(C(=O)c1cc(OCC2CC2)c(C2CC2)cn1)C(C)(C)C` [Example 106, 5-Cyclopropyl-4-cyclopropylmethoxy-pyridine-2-carboxylic acid tert-butyl-ethyl-amide], the values for the EC50 in assay [1] (setting [3]) and in assay [2] (read-out: Human CB2 EC50) were > 10 µM and 0.0095 µM, respectively.

For the molecule `CCC(CC)(CO)NC(=O)c1cc(OCC2CC2)c(Cl)cn1` [Example 21, 5-Chloro-4-cyclopropylmethoxy-pyridine-2-carboxylic acid (1-ethyl-1-hydroxymethyl-propyl)-amide], the EC50 was > 10 µM in assay [1] (setting [3]) and 0.0404 µM in assay [2] (read-out: Human CB2 EC50).

As for `C[C@H](Oc1cc(C(=O)NC(C(N)=O)C(C)(C)C)ncc1C1CC1)C(F)(F)F` (stereo partly drawn) [Example 239, N-(1-amino-3,3-dimethyl-1-oxobutan-2-yl)-5-cyclopropyl-4-[(2S)-1,1,1-trifluoropropan-2-yl]oxypyridine-2-carboxamide], the half-maximal effective concentration (EC50) is > 10 µM in assay [1] (setting [3]) and 0.0015 µM in assay [2] (read-out: Human CB2 EC50).

As for `Cc1nc([C@@](C)(NC(=O)c2cc(OCC(F)(F)F)c(C3CC3)cn2)C2CC2)no1` (single isomer, unassigned; enantiomer a) [Example 61, 5-Cyclopropyl-4-(2,2,2-trifluoro-ethoxy)-pyridine-2-carboxylic acid [1-cyclopropyl-1-(5-methyl-[1,2,4]oxadiazol-3-yl)-ethyl]-amide (enantiomer A)], the EC50 in assay [1] (setting [4]) is > 10 µM; in assay [2] (Human CB2 EC50 (uM)), 0.0276 µM.

In the case of `Cc1nc(C(C)(NC(=O)c2cc(OCC(F)(F)F)c(C3(F)COC3)cn2)C2CC2)no1` (single isomer, unassigned) [Example 167, N-[1-cyclopropyl-1-(5-methyl-1,2,4-oxadiazol-3-yl)ethyl]-5-(3-fluorooxetan-3-yl)-4-(2,2,2-trifluoroethoxy)pyridine-2-carboxamide], the EC50 is > 10 µM in assay [1] (read-out: Human CB1 EC50; functional cAMP assay, CHO cells expressing human CB1) and 0.0281 µM in assay [2] (Human CB2 EC50 (uM)).

With `COC(=O)C(C)C(C)(C)NC(=O)c1cc(OCC2CC2)c(Cl)cn1` (stereo not shown) [Example 31, Methyl 3-({[5-chloro-4-(cyclopropylmethoxy)pyridin-2-yl]carbonyl}amino)-2,3-dimethylbutanoate], the concentration giving a half-maximal response (EC50) in assay [1] (setting [3]) was > 10 µM; in assay [2] (read-out: Human CB2 EC50), 0.0095 µM.

Take `C[C@H](Oc1cc(C(=O)NC(C(=O)N(C)C)C(C)(C)C)ncc1C1CC1)C(F)(F)F` (stereo partly drawn) [Example 201, 5-cyclopropyl-N-[1-(dimethylamino)-3,3-dimethyl-1-oxobutan-2-yl]-4-[(2S)-1,1,1-trifluoropropan-2-yl]oxypyridine-2-carboxamide]: the values for the EC50 in assay [1] (setting [3]) and in assay [2] (read-out: Human CB2 EC50) were > 10 µM and 0.0024 µM, respectively.

Turning to `Cc1nc([C@@](C)(CC(C)(C)C)NC(=O)c2cc(OCC(F)(F)F)c(C3CC3)cn2)no1` (single isomer, unassigned) [Example 104, 5-Cyclopropyl-4-(2,2,2-trifluoro-ethoxy)-pyridine-2-carboxylic acid [1,3,3-trimethyl-1-(5-methyl-[1,2,4]oxadiazol-3-yl)-butyl]-amide], the 50% effective concentration (EC50) in assay [1] (setting [4]) is > 10 µM; in assay [2] (Human CB2 EC50 (uM)), 0.0298 µM.

In the case of `CC(C)C[C@H](NC(=O)c1cc(OCC2CC2)c(C2CC2)cn1)C(N)=O` [Example 47, 5-Cyclopropyl-4-cyclopropylmethoxy-pyridine-2-carboxylic acid ((S)-1-carbamoyl-3-methyl-butyl)-amide], the EC50 is > 10 µM in assay [1] (setting [3]) and 0.0118 µM in assay [2] (read-out: Human CB2 EC50).

As to `CCN(C(=O)c1cc(OCC(F)(F)F)c(C2CC2)cn1)C(C)(C)C` [Example 107, 5-Cyclopropyl-4-(2,2,2-trifluoro-ethoxy)-pyridine-2-carboxylic acid tert-butyl-ethyl-amide], the figures for the EC50 in assay [1] (setting [3]) and in assay [2] (read-out: Human CB2 EC50) were > 10 µM and 0.0822 µM, respectively.

For `CNC(=O)C(NC(=O)c1cc(O[C@@H](C)C(F)(F)F)c(C2CC2)cn1)C(C)(C)O` (stereo partly drawn) [Example 252, 5-cyclopropyl-N-[3-hydroxy-3-methyl-1-(methylamino)-1-oxobutan-2-yl]-4-[(2S)-1,1,1-trifluoropropan-2-yl]oxypyridine-2-carboxamide], the EC50 in assay [1] (setting [3]) is > 10 µM; in assay [2] (read-out: Human CB2 EC50) it was 0.344 µM.

For `NC(=O)CC1(NC(=O)c2cc(OCC(F)(F)F)c(C3(F)CCC3)cn2)CS(=O)(=O)C1` [Example 286, N-[3-(2-amino-2-oxoethyl)-1,1-dioxothietan-3-yl]-5-(1-fluorocyclobutyl)-4-(2,2,2-trifluoroethoxy)pyridine-2-carboxamide], the values for the EC50 in assay [1] (setting [3]) and in assay [2] (read-out: Human CB2 EC50) were > 10 µM and 0.0459 µM, respectively.

`Cc1nc(C(C)(NC(=O)c2cc(OCC(F)(F)F)c(C3CC3)cn2)C(=O)N2CC(F)(F)C2)no1` (stereo not shown) [Example 147, 5-cyclopropyl-N-[1-(3,3-difluoroazetidin-1-yl)-2-(5-methyl-1,2,4-oxadiazol-3-yl)-1-oxopropan-2-yl]-4-(2,2,2-trifluoroethoxy)pyridine-2-carboxamide]: the EC50 is > 10 µM in assay [1] (setting [3]) and 0.0454 µM in assay [2] (read-out: Human CB2 EC50).

As to `CNC(=O)CC(C)(NC(=O)c1cc(O[C@@H](C)C(F)(F)F)c(C2CC2)cn1)C1CC1` (stereo partly drawn) [Example 249, 5-cyclopropyl-N-[2-cyclopropyl-4-(methylamino)-4-oxobutan-2-yl]-4-[(2S)-1,1,1-trifluoropropan-2-yl]oxypyridine-2-carboxamide], the values for the EC50 in assay [1] (setting [3]) and in assay [2] (read-out: Human CB2 EC50) were > 10 µM and 0.001 µM, respectively.

Regarding `CC(CS(C)(=O)=O)(NC(=O)c1cc(OCC(F)(F)F)c(C2CC2)cn1)C(N)=O` (stereo not shown) [Example 134, N-(1-amino-2-methyl-3-methylsulfonyl-1-oxopropan-2-yl)-5-cyclopropyl-4-(2,2,2-trifluoroethoxy)pyridine-2-carboxamide], the EC50 in assay [1] (setting [3]) was > 10 µM; in assay [2] (read-out: Human CB2 EC50) it was 0.888 µM.

On to `Cc1nc([C@](C)(CC(C)(C)C)NC(=O)c2cc(OCC(F)(F)F)c(C3CC3)cn2)no1` (single isomer, unassigned) [Example 105, 5-Cyclopropyl-4-(2,2,2-trifluoro-ethoxy)-pyridine-2-carboxylic acid [1,3,3-trimethyl-1-(5-methyl-[1,2,4]oxadiazol-3-yl)-butyl]-amide], for which the results for the EC50 in assay [1] (setting [4]) and in assay [2] (Human CB2 EC50 (uM)) were 0.33 µM and 0.0023 µM, respectively.

Turning to `C[C@H](Oc1cc(C(=O)NC2(CC(N)=O)CS(=O)(=O)C2)ncc1C1(F)CCC1)C(F)(F)F` [Example 305, N-[3-(2-amino-2-oxoethyl)-1,1-dioxothietan-3-yl]-5-(1-fluorocyclobutyl)-4-[(2S)-1,1,1-trifluoropropan-2-yl]oxypyridine-2-carboxamide], the figures for the EC50 in assay [1] (setting [3]) and in assay [2] (read-out: Human CB2 EC50) were > 10 µM and 0.0051 µM, respectively.

For `CNC(=O)C(C)(CC1CC1)NC(=O)c1cc(OCC(F)(F)F)c(C2CC2)cn1` (stereo not shown) [Example 189, 5-cyclopropyl-N-[3-cyclopropyl-2-methyl-1-(methylamino)-1-oxopropan-2-yl]-4-(2,2,2-trifluoroethoxy)pyridine-2-carboxamide], the EC50 was > 10 µM in assay [1] (setting [3]) and 0.292 µM in assay [2] (read-out: Human CB2 EC50).

Values taken from patent US9409866B2, “Pyridine-2-amides useful as CB2 agonists” (Hoffmann-La Roche Inc., priority 2012, dated 2016).
